Experimental data from patent US10125135B2, “Chemical compounds” (AstraZeneca AB, priority 2016, dated 2018).
≈ marks a conversion by molar mass, not a printed value.

Tests used:
[1] = Thermodynamic solubility, shake-flask; type: physicochemical; conditions: thermodynamic from solid; aqueous phosphate buffer pH 7.4, 24 hours at 25° C.
Procedure: The thermodynamic solubility of a research compound is measured under standard conditions. It is a shake-flask approach that uses 10 mM DMSO solutions which are supplied from the Compound Managements liquid store and is a high throughput method. The dried compounds are equilibrated in an aqueous phosphate buffer (pH 7.4) for 24 hours at 25° C., the portion with the dissolved compound is then separated from the remains. The solutions are analyzed and quantified using UPLC/MS/MS, QC-samples are incorporated in each assay-run to ensure the quality of the assay.

[2] = target: ERα receptor in MCF-7 human ductal carcinoma breast cell line (Homo sapiens (Human), UniProt P03372); assay: MCF-7 ER down regulation assay (immuno-fluorescence); type: cell-based; conditions: MCF-7 cells, 18-22 hours incubation; read-out: ER down regulation IC50 value
ERα receptor in MCF-7 human ductal carcinoma breast cell line, sequence (P03372 whole entry): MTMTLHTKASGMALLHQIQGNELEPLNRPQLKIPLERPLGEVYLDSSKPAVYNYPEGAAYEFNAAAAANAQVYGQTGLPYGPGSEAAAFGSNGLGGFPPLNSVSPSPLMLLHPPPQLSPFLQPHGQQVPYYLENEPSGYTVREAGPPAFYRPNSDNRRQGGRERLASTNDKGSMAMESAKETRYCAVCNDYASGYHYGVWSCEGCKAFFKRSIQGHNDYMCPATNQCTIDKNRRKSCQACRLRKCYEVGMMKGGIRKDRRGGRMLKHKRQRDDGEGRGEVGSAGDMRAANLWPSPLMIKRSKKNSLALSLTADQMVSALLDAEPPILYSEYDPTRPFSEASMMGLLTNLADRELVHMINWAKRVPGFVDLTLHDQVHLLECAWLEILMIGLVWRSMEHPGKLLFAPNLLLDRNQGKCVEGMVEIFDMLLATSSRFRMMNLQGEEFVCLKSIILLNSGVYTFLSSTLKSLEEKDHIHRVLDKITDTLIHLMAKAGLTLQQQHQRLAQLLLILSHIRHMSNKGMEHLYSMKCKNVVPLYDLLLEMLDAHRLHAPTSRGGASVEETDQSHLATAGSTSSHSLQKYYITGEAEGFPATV

[3] = logD shake flask, 1-octanol/aqueous buffer; type: physicochemical; conditions: pH 7.4
Text: The lipophilicity of a drug is an important physical property which may influence many biological and metabolic properties of a compound. The distribution coefficient between 1-octanol and aqueous buffer, Log DO/W, at pH 7.4, is the most commonly used measurement of the lipophilicity of a compound. The current method for measurement of Log DO/W is based on the traditional shake flask technique, but with the modification of measuring compounds in mixtures of ten at a time using UPLC with quantitative mass spectrometry (MS) as a method to measure the relative octanol and aqueous concentrations. […] An additional QC sample Caffeine, with low Log D, are used and randomly placed in all runs. The method has been thoroughly validated against the previous shake flask methodologies.

[4] = target: estrogen receptor (ERα) in MCF-7 human breast cancer cell line (Homo sapiens (Human), UniProt P03372); assay: Western blotting assay, MCF-7 cells; type: cell-based; conditions: 100 nM compound, 48 h; normalised to vehicle (0%) and 100 nM fulvestrant (100%)
estrogen receptor (ERα) in MCF-7 human breast cancer cell line, sequence (P03372 whole entry): as above
Procedure: (§1) The ability of compounds to down-regulate estrogen receptor (ER) was assessed by western blotting using human breast cancer cell lines (MCF-7 and CAMA-1). Cells were plated into 12-well tissue culture-treated plates at 0.5×10^6/well in phenol red-free RPMI containing 2 mM L-glutamine and 5% (v/v) charcoal treated foetal calf serum (F6765, Sigma). Cells were incubated with compounds (100 nM) or vehicle control (0.1% DMSO) for 48 h at 37° C., 5% CO2 before washing once with PBS and lysing with 80 μl lysis buffer (25 mM Tris/HCl, 3 mM EDTA, 3 mM EGTA, 50 mM NaF, 2 mM sodium orthovanadate, 0.27 M sucrose, 10 mM β-glycerophosphate, 5 mM sodium pyrophosphate, 0.5% TritonX-100, pH 6.8) on ice.
(§2) Cells were scraped, sonicated and centrifuged prior to performing a protein assay (DC Bio-Rad Protein kit, 500-0116) and making samples to a protein concentration of 1-2 mg/m1 in lysis buffer containing 1× LDS Sample Buffer (NP0007, Invitrogen) and 1× NuPAGE sample reducing agent (NP0009, Invitrogen). Samples were boiled for 10 min at 95° C. and then frozen at −20° C. until ready for use.
(§3) 10-20 μg protein was loaded onto 26-well Criterion gels (BioRad 345-0034). Gels were run at 125 V for 1 hr 25 min in running buffer (24 mM Tris Base Sigma, 192 mM Glycine, 3.5 mM SDS, made up in distilled water). Gels were then transferred at 30V for 2 hr in transfer buffer (25 mM Tris, 192 mM Glycine, 20% (v/v) methanol, pH 8.3, made up in distilled water) onto nitrocellulose membrane. The blot was stained with Ponceau S (P7170, Sigma) and cut according to appropriate molecular weight markers.
(§4) Membranes were blocked for 1 hour at room temp in 5% Marvel (w/v) in phosphate-buffered saline containing 0.05% Tween™ 20 (PBS/Tween). Blots were then incubated with anti-ERα (SP1) rabbit monoclonal antibody (Thermofisher) diluted 1:1000 at 4° C. overnight (with gentle shaking) followed by several washes with PBS/Tween. Secondary anti-rabbit HRP antibody (7074, CST) diluted 1:2000 dilution was incubated for 2 h at room temperature (with gentle shaking) followed by several washes with PBS/Tween. All antibodies were made up in 5% Marvel (w/v) in PBS/Tween.
(§5) The immunoblots were developed using Pierce WestDura chemiluminescent reagents (Thermo Scientific 34076) and developed/quantified on the G-box using Syngene software. Down-regulation of the ERα receptor was normalised to the vehicle control (0% down-regulation) and the 100 nM fulvestrant control (100% down-regulation) run within the same gel.

[5] = Human plasma protein binding, equilibrium dialysis (RED); type: in vitro ADME; conditions: dialysis for 18 hours
Procedure: Human Plasma Protein Binding
The automated equilibrium dialysis assay in human plasma uses the RED (Rapid Equilibrium Dialysis) Device and sample handling. The assay generally runs over two to three days including delivery of results. After dialysis for 18 hours, plasma and buffer samples are prepared for analysis by liquid chromatography and mass spectrometry. Samples are generally tested in singlicates and quantified by LC/MSMS by using a 7-point calibration curve in plasma. The compounds are pooled together in plasma pools up to 10 compounds. Three reference compounds are used in each run, Propranolol, Metoprolol and Warfarin. Warfarin is used as a control in each pool and Propranolol and Metoprolol are placed randomly in each run. An in-house Excel macro is used for preparation of files for the robot and the mass spectrometer and also used for the calculations of fraction unbound (fu %) in plasma.

[6] = target: estrogen receptor (ERα) in CAMA-1 human breast cancer cell line (Homo sapiens (Human), UniProt P03372); assay: Western blotting assay, CAMA-1 cells; type: cell-based; conditions: 100 nM compound, 48 h; normalised to vehicle (0%) and 100 nM fulvestrant (100%)
estrogen receptor (ERα) in CAMA-1 human breast cancer cell line, sequence (P03372 whole entry): as above
Procedure: as §1, §2, §3, §4, §5

ERα receptor = ERα receptor (Homo sapiens (Human), UniProt P03372); conditions: 500mg monthly dose; cited from earlier work
ERα receptor, sequence (P03372 whole entry): as above

Compound | solubility at 24 h [1] | DC50 [2] | logD [3] | MCF7 Western % ER deg vs Fv [4] | Human plasma protein binding (% free) [5] | CAMA1 Western % ER deg vs Fv [6] | turnover of the receptor in patient samples (ERα receptor)
COc1cc(OCCN2CC(CF)C2)ccc1[C@@H]1c2ccc3[nH]ncc3c2C[C@@H](C)N1CC(F)F [Example 7, (6S,8R)-7-(2,2-difluoroethyl)-6-(4-(2-(3-(fluoromethyl)azetidin-1-yl)ethoxy)-2-methoxyphenyl)-8-methyl-6,7,8,9-tetrahydro-3H-pyrazolo[4,3-f]isoquinoline] | 364 µM (≈ 178 µg/mL) | 0.085 nM | 3.4 | 100% | 11 % free | 95% | –
COCC(F)(F)CN1[C@H](c2ccc(OCCN3CC(CF)C3)cn2)c2ccc3[nH]ncc3c2C[C@H]1C [Example 10, (6S,8R)-7-(2,2-difluoro-3-methoxypropyl)-6-(5-(2-(3-(fluoromethyl)azetidin-1-yl)ethoxy)pyridin-2-yl)-8-methyl-6,7,8,9-tetrahydro-3H-pyrazolo[4,3-f]isoquinoline] | 811 µM (≈ 408 µg/mL) | 0.51 nM | 2.4 | 87% | 27 % free | 66% | –
C[C@@H]1Cc2c(ccc3[nH]ncc23)[C@@H](c2ncc(OCCN3CC(CF)C3)cc2F)N1CC(F)(F)F [Example 50, (6S,8R)-6-(3-fluoro-5-(2-(3-(fluoromethyl)azetidin-1-yl)ethoxy)pyridin-2-yl)-8-methyl-7-(2,2,2-trifluoroethyl)-6,7,8,9-tetrahydro-3H-pyrazolo[4,3-f]isoquinoline] | 1000 µM (≈ 495 µg/mL) | 0.5 nM | 2.8 | – | 20 % free | – | –
C[C@]12CC[C@@H]3c4ccc(O)cc4C[C@@H](CCCCCCCCC[S+]([O-])CCCC(F)(F)C(F)(F)F)[C@H]3[C@@H]1CC[C@@H]2O (some centres unmarked) [Fulvestrant, fulvestrant] | – | – | – | – | – | – | less than 50%
